# Patent US4405642A, “Method for treatment or prophylaxis of cardiac disorders” (American Hospital Supply Corporation, priority 1980, dated 1983)
# Where a name gives a salt, the structure may show the parent alone.
# Legend:
# [1] = molecular target: T1, β-adrenergic receptors (guinea pig right atria) (Cavia porcellus, UniProt H0W3H1); assay: β-blocking activity in vitro, guinea pig right atria (rate response to isoproterenol); type: cell-based; details: vs isoproterenol, guinea pig right atria, 60 minute incubation, 37° C.
# T1 construct: Atria were allowed to beat spontaneously under a loading tension; from tissue; host or cells: guinea pig right atria (isolated, spontaneously beating)
# T1 sequence (H0W3H1 1-470): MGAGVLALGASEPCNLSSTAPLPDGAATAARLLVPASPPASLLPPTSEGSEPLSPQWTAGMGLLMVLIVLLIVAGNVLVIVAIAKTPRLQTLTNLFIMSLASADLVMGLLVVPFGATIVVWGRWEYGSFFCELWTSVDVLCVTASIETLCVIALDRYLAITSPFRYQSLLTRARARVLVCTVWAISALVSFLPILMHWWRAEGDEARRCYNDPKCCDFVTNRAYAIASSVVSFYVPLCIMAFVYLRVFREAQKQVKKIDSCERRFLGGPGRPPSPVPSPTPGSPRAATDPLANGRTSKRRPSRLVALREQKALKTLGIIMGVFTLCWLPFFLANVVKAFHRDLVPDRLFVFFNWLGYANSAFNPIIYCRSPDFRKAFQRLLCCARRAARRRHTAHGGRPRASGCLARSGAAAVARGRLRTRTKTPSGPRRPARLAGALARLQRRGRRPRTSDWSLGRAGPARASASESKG
# Experimental: (§1) Each tissue was suspended between a fixed glass rod and a Statham® Universal Transducer connected to a Beckman® recorder. Atria were allowed to beat spontaneously under a loading tension of approximately 0.5 gm. Instrinsic depressant or stimulant activity was determined for each compound by progressively increasing concentrations in the tissue baths at 60-minute intervals. Tissues were not washed between increments. The maximum concentration showing little or no cardiodepressant activity was chosen for blockade experiments. Changes in rate in response to isoproterenol were measured in the absence and presence of test compounds. Spiral strips of guinea pig trachea were suspended under 5 gm resting tension and incubated with phentolamine, tropolone and cocaine. Active tension was generated by addition of carbachol (3.0×10^-7 M) and decreases in tension in response to isoproterenol were quantitated. Cumulative concentration-response curves were produced with isoproterenol both before and after 60 minute incubation of test compounds with atria and trachea. The blocking potency of test compounds was estimated by computing pA2 values (-log […]) by the method of Furchgott, The Pharmacological Differentiation of Adrenergic Receptors, Ann. […] The degree of cardioselectivity was estimated from the ratio, KB trachea/KB atria (10^(pA.sbsp.2^atria-pA.sbsp.2^trachea)). A ratio greater than one indicates cardioselectivity. Test drugs were dissolved in distilled water and added to the bath (30 ml) in a volume of 10 or 100 μl.
# [2] = tested on: β-adrenergic receptors (guinea pig right atria); assay: as above; type: cell-based; details: ratio from pA2 atria and trachea; greater than one indicates cardioselectivity
# Experimental: as §1
# [3] = molecular target: T2, β-adrenergic receptors (guinea pig tracheal strips) (Cavia porcellus, UniProt Q8K4Z4); assay: β-blocking activity in vitro, guinea pig tracheal strips (tension response to isoproterenol); type: cell-based; details: vs isoproterenol, 60 minute incubation, 37° C.
# T2 construct: from tissue; host or cells: guinea pig trachea (isolated spiral strips)
# T2 sequence (Q8K4Z4 whole entry): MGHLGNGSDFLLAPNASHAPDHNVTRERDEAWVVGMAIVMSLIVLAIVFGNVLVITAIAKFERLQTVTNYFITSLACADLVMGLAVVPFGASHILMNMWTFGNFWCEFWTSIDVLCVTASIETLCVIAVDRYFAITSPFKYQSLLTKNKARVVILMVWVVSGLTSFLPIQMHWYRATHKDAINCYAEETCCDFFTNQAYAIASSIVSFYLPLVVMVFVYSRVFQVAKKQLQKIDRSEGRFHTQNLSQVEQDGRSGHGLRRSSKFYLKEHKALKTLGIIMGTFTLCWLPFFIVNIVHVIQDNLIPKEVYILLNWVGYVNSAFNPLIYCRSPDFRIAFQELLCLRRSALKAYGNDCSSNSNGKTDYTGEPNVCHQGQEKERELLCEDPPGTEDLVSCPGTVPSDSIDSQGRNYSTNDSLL
# Experimental: as §1
# [4] = tested on: heart rate response to isoproterenol; assay: Duration of beta-blockade in vivo, anesthetized dogs, 40-minute infusion; design: species or system dog; details: for Recovery Times 50%: 50% recovery of heart rate after 40-minute infusion; for Recovery Times 50% / Recovery Times 80% / Recovery Times 100%: normalized to 50% inhibition, dog; for Recovery Times 80%: 80% recovery of heart rate after 40-minute infusion; for Recovery Times 100%: 100% recovery of heart rate after 40-minute infusion; for ED50: Canis lupus familiaris, iv, 40 min, read-out: Potency
# Experimental: (§2) The duration of beta-blockade was determined in vivo using pentobarbitalanesthetized dogs instrumented for measurement of heart rate using a Beckman® cardiotachometer triggered electronically by a phasic aortic blood pressure signal. Both vagus nerves were severed in the cervical region and the animals were mechanically ventilated. Two experimental designs were used. The first employed a 40-minute infusion of test compound and the second used a 3-hour infusion of test compound. In the 40-minute model, isoproterenol was infused into a foreleg vein at the rate of 0.5 μg/kg/min to induce a beta-receptor mediated tachycardia. Various doses of test compound where then infused into a femoral vein over a period of 40 minutes. This infusion was then terminated and recovery from blockade was quantitated. […] This cumulative dose is expressed as mg/kg and is an indication of potency. The time period required for 80% recovery of heart rate for each dose of test drug was also measured to quantitate duration of action. […] Test compounds were dissolved in 0.9% NaCl and infused at a rate of 0.05 ml/kg/min or less. In the 3-hour infusion model, bolus doses of isoproterenol (0.5 μg/kg) were used to assess the degree of beta-blockade and recovery from beta-blockade after termination of the infusion. The doses were spaced at 10-minute intervals and were given before, during and following the infusion of test compounds. The infusion rate was adjusted so that at the end of the 3-hour infusion period the degree of isoproterenol inhibition averaged about 50% of control.
# [5] = Disappearance in vitro in human whole blood; type: in vitro ADME; details: 50 μg test compound, 37° C., read-out: T1/2 Human Whole Blood
# Experimental: (§3) The rate of disappearance of a compound is expressed as the half-life (T1/2), which is the time period in which one half of the initial amount of compound tested disappears. […] The samples were incubated in a Dubnoff shaking metabolic incubator for 2.5, 5.0, 10.0, 20.0, 30.0 and 60.0 minutes at 37° C. At the designated time periods, the test mixtures were removed from the incubator and transferred to a 0° C. ice bath. Acetonitrile (2 ml) was immediately added and the mixtures were mixed to stop enzymatic hydrolysis. Zero time samples were prepared by adding 2 ml. of acetonitrile to denature the proteins prior to addition of the test compounds. After centrifugation to sediment denatured proteins, 2 ml. of the supernatant was removed and analyzed by high pressure liquid chromatography, using a mobile phase of 60% acetonitrile/40% 0.05 m sodium phosphate buffer (pH 6.6), a U.V. detector and Waters® μ Bondapak Phenyl column. The half life of each test compound was determined graphically by plotting the decrease in concentration as a function of time.
# [6] = Disappearance in vitro in dog whole blood; type: in vitro ADME; details: 50 μg test compound, 37° C., read-out: T1/2 Dog Whole Blood
# Experimental: as §3
# [7] = Disappearance in vitro in dog liver homogenate; type: in vitro ADME; details: 50 μg test compound, 33% (w/v) liver homogenate, 37° C., read-out: T1/2 Dog Liver Homogenate
# Experimental: as §3
# [8] = tested on: heart rate response to isoproterenol; assay: Duration of beta-blockade in vivo, anesthetized dogs, 3-hour infusion; details: dog
# Experimental: as §2
SMILES,Kb ([1]; read-out: pA2 Atria (converted)),Cardioselectivity KB (Trachea)/KB (Atria) [2],Kb ([3]; read-out: pA2 Trachea (converted)),Recovery Times 50% [4],Recovery Times 80% [4],Recovery Times 100% [4],ED50 [4],half-life [5],half-life [6],half-life [7],pA2 Atria [1],pA2 Trachea [3],80% Recovery Time ([8]; after termination of 3-hour infusion),"% I (Percent inhibition of heart rate response to isoproterenol) ([8]; end of 3-hour infusion, bolus isoproterenol 0.5 μg/kg)"
Cc1ccc(C(=O)OCC(O)CNC(C)C)cc1 (stereo not drawn) [Example X],158 nM,1,158 nM,11.0 min,20 ± 2 min,30.0 min,3.1 ± 0.3 mg/kg,6 min,67 ± 24 min,10 ± 4 min,,,,
"CC(C)NCC(O)COC(=O)c1ccccc1 (stereo not drawn) [Example VI, [3-(Isopropylamino)-2-hydroxy]propyl Benzoate Hydrochloride]",,,,7 ± 2 min,14 ± 3 min,21 ± 3 min,3.4 ± 1.1 mg/kg,2.3 ± 0.6 min,6.8 ± 2 min,8 ± 3.5 min,6.3,7.2,26 ± 8 min,63 ± 8%
